Values quoted from earlier work as cited in patent publication US8153634B2, “Carbinol derivatives having cyclic linker” (Kowa Company, Ltd., priority 2008, dated 2012).

Test system: LXRβ (versus LXRα)
Details: reported in non-patent document 22

SMILES: O=C(O)Cc1ccc(COc2cccc(-c3c(Cc4ccccc4)cnc4c(C(F)(F)F)cccc34)c2)cc1 [WAY-254011]
- LXRβ-selective binding affinity, α/β ratio: 1 to 5
